Results as given in patent publication US20070093520A1, “Method of treatment of diarrhea-predominant irritable bowel syndrome in a subject” (priority 2005, published 2007).

System: diarrhea-predominant IBS subjects
Experiment: 3007 Study: open-label 52-week safety study, adverse events and withdrawals

Question: What does the source list for `Cc1nccn1C[C@H]1CCc2c(c3cccc4c3n2CCC4)C1=O` [cilansetron, (R)-(−)-4,5,6,8,9,10-hexahydro-10-[(2-methyl-1H-imidazol-1-yl)methyl]-11H-pyrido-[3,2,1-jk]-carbazol-11-one]?
Answer: TEAE: Sexual Desire Disorders (P/C group): 1 (<1%) n (%); TEAE: Sick Sinus Syndrome (P/C group): 1 (<1%) n (%); TEAE: Sinus Arrhythmia (P/C group): 1 (<1%) n (%); TEAE: Sinus Congestion (P/C group): 3 (1%) n (%); TEAE: Skin Disorder NOS (P/C group): 1 (<1%) n (%); TEAE: Skin Injuries and Mechanical Dermatoses (P/C group): 2 (<1%) n (%); TEAE: Skin Lesion NOS (P/C group): 2 (<1%) n (%); TEAE: Skin Neoplasms Benign (P/C group): 1 (<1%) n (%); TEAE: Skin Neoplasms Malignant and Unspecified (Excl Melanoma) (P/C group): 4 (1%) n (%); TEAE: Skin Ulcer (P/C group): 1 (<1%) n (%); TEAE: Skin and Subcutaneous Tissue Disorders (P/C group): 25 (9%) n (%); TEAE: Skin and Subcutaneous Tissue Ulcerations (P/C group): 1 (<1%) n (%); TEAE: Social Circumstances (P/C group): 1 (<1%) n (%); TEAE: Soft Tissue Neoplasms Benign NEC (P/C group): 0 n (%); TEAE: Strabismus (P/C group): 1 (<1%) n (%); TEAE: Stress Incontinence (P/C group): 0 n (%); TEAE: Stress Symptoms (P/C group): 1 (<1%) n (%); TEAE: Structural and Other Bile Duct Disorders (P/C group): 1 (<1%) n (%); TEAE: Sugar Intolerance (Excl Glucose Intolerance) (P/C group): 1 (<1%) n (%); TEAE: Suicidal Ideation (P/C group): 1 (<1%) n (%); TEAE: Suicidal and Self-Injurious Behaviour (P/C group): 1 (<1%) n (%); TEAE: Supraventricular Arrhythmias (P/C group): 3 (1%) n (%); TEAE: Supraventricular Tachycardia (P/C group): 1 (<1%) n (%); TEAE: Surgical and Medical Procedures (P/C group): 1 (<1%) n (%); TEAE: Sweating Increased (P/C group): 2 (<1%) n (%); TEAE: Swelling Face (P/C group): 1 (<1%) n (%); TEAE: Tachycardia NOS (P/C group): 0 n (%); TEAE: Tenderness NOS (P/C group): 1 (<1%) n (%); TEAE: Thrombocytopenia (P/C group): 1 (<1%) n (%); TEAE: Thrombocytopenias (P/C group): 1 (<1%) n (%); TEAE: Thrombophlebitis Superficial (P/C group): 1 (<1%) n (%); TEAE: Thyroid Disorders NEC (P/C group): 0 n (%); TEAE: Thyroid Hypofunction Disorders (P/C group): 1 (<1%) n (%); TEAE: Thyroid Neoplasms (P/C group): 1 (<1%) n (%); TEAE: Thyroid Nodule (P/C group): 1 (<1%) n (%); TEAE: Tinnitus (P/C group): 0 n (%); TEAE: Total Fluid Volume Decreased (P/C group): 1 (<1%) n (%); TEAE: Tympanic Membrane Disorder NOS (P/C group): 1 (<1%) n (%); TEAE: Tympanic Membrane Disorders (Excl Infections) (P/C group): 1 (<1%) n (%); TEAE: Upper Respiratory Tract Signs and Symptoms (P/C group): 4 (1%) n (%); TEAE: Urinary Abnormalities (P/C group): 1 (<1%) n (%); TEAE: Urinary Frequency (P/C group): 1 (<1%) n (%); TEAE: Urinary Incontinence (P/C group): 0 n (%); TEAE: Urinary Retention (P/C group): 0 n (%); TEAE: Urinary Tract Lithiasis (Excl Renal) (P/C group): 0 n (%); TEAE: Urinary Tract Signs and Symptoms NEC (P/C group): 1 (<1%) n (%); TEAE: Urine Abnormal NOS (P/C group): 0 n (%); TEAE: Urticaria NOS (P/C group): 2 (<1%) n (%); TEAE: Urticarias (P/C group): 2 (<1%) n (%); TEAE: Uterine Disorders NEC* (P/C group): 0 n (%); TEAE: Uterine Fibroids* (P/C group): 0 n (%); TEAE: Uterine Neoplasms Benign* (P/C group): 0 n (%); TEAE: Uterine Neoplasms* (P/C group): 0 n (%); TEAE: Uterine Polyp NOS* (P/C group): 0 n (%); TEAE: Vaginal Cyst* (P/C group): 0 n (%); TEAE: Vaginal Lesion* (P/C group): 0 n (%); TEAE: Varicose Vein Ruptured (P/C group): 0 n (%); TEAE: Varicose Veins Non-Site Specific (P/C group): 0 n (%); TEAE: Vascular Disorders (P/C group): 8 (3%) n (%); TEAE: Vascular Hypertensive Disorders NEC (P/C group): 7 (3%) n (%); TEAE: Vascular Hypotensive Disorders (P/C group): 1 (<1%) n (%); TEAE: Ventricular Arrhythmias and Cardiac Arrest (P/C group): 1 (<1%) n (%); TEAE: Ventricular Extrasystoles (P/C group): 0 n (%); TEAE: Vertigo (P/C group): 1 (<1%) n (%); TEAE: Visual Acuity Reduced (P/C group): 1 (<1%) n (%); TEAE: Vitreous Disorder NOS (P/C group): 1 (<1%) n (%); TEAE: Vulvovaginal Cysts and Neoplasms* (P/C group): 0 n (%); TEAE: Vulvovaginal Dryness* (P/C group): 2 (1%) n (%); TEAE: Vulvovaginal Signs and Symptoms* (P/C group): 2 (1%) n (%); TEAE: Wheezing (P/C group): 0 n (%); TEAE: Abdominal Discomfort (Placebo/Cilansetron 2 mg): 0 n (%); TEAE: Abdominal Distension (Placebo/Cilansetron 2 mg): 6 (2%) n (%); TEAE: Abdominal Pain Aggravated (Placebo/Cilansetron 2 mg): 0 n (%); TEAE: Abdominal Pain Lower (Placebo/Cilansetron 2 mg): 6 (2%) n (%); TEAE: Abdominal Pain NOS (Placebo/Cilansetron 2 mg): 21 (8%) n (%); TEAE: Abdominal Pain Upper (Placebo/Cilansetron 2 mg): 4 (1%) n (%); TEAE: Abdominal Rebound Tenderness (Placebo/Cilansetron 2 mg): 0 n (%); TEAE: Abdominal Tenderness (Placebo/Cilansetron 2 mg): 4 (1%) n (%); TEAE: Abnormal Reflexes (Placebo/Cilansetron 2 mg): 0 n (%); TEAE: Alanine Aminotransferase Increased (Placebo/Cilansetron 2 mg): 6 (2%) n (%); TEAE: Anal and Rectal Disorders NEC (Placebo/Cilansetron 2 mg): 1 (<1%) n (%); TEAE: Anal and Rectal Pains (Placebo/Cilansetron 2 mg): 4 (1%) n (%); TEAE: Anal and Rectal Signs and Symptoms (Placebo/Cilansetron 2 mg): 3 (1%) n (%); TEAE: Animal Bite (Placebo/Cilansetron 2 mg): 1 (<1%) n (%); TEAE: Appendicitis (Placebo/Cilansetron 2 mg): 0 n (%); TEAE: Arthralgia (Placebo/Cilansetron 2 mg): 3 (1%) n (%); TEAE: Arthritis NOS (Placebo/Cilansetron 2 mg): 0 n (%); TEAE: Arthritis NOS Aggravated (Placebo/Cilansetron 2 mg): 0 n (%); TEAE: Arthropathies NEC (Placebo/Cilansetron 2 mg): 1 (<1%) n (%); TEAE: Arthropod Bite (Placebo/Cilansetron 2 mg): 1 (<1%) n (%); TEAE: Arthropod Sting (Placebo/Cilansetron 2 mg): 1 (<1%) n (%); TEAE: Aspartate Aminotransferase Increased (Placebo/Cilansetron 2 mg): 3 (1%) n (%); TEAE: Back Injury NOS (Placebo/Cilansetron 2 mg): 0 n (%); TEAE: Back Pain (Placebo/Cilansetron 2 mg): 6 (2%) n (%); TEAE: Back Pain Aggravated (Placebo/Cilansetron 2 mg): 1 (<1%) n (%); TEAE: Bacteria Identification and Serology (Excl Mycobacteria) (Placebo/Cilansetron 2 mg): 0 n (%); TEAE: Bilirubin Urine (Placebo/Cilansetron 2 mg): 0 n (%); TEAE: Bladder Infection NOS (Placebo/Cilansetron 2 mg): 1 (<1%) n (%); TEAE: Blood Alkaline Phosphatase NOS Increased (Placebo/Cilansetron 2 mg): 1 (<1%) n (%); TEAE: Blood Bilirubin Increased (Placebo/Cilansetron 2 mg): 2 (<1%) n (%); TEAE: Blood Cholesterol Increased (Placebo/Cilansetron 2 mg): 8 (3%) n (%); TEAE: Blood Creatine Phosphokinase Increased (Placebo/Cilansetron 2 mg): 8 (3%) n (%); TEAE: Blood Creatine Phosphokinase Mb Increased (Placebo/Cilansetron 2 mg): 0 n (%); TEAE: Blood Creatinine Increased (Placebo/Cilansetron 2 mg): 3 (1%) n (%); TEAE: Blood Glucose Increased (Placebo/Cilansetron 2 mg): 0 n (%); TEAE: Blood Potassium Increased (Placebo/Cilansetron 2 mg): 0 n (%); TEAE: Blood Pressure Increased (Placebo/Cilansetron 2 mg): 2 (<1%) n (%); TEAE: Blood Sodium Increased (Placebo/Cilansetron 2 mg): 0 n (%); TEAE: Blood Triglycerides Increased (Placebo/Cilansetron 2 mg): 4 (1%) n (%); TEAE: Blood Uric Acid Increased (Placebo/Cilansetron 2 mg): 0 n (%); TEAE: Blood Urine Present (Placebo/Cilansetron 2 mg): 4 (1%) n (%); TEAE: Blood in Stool (Placebo/Cilansetron 2 mg): 4 (1%) n (%); TEAE: Bone Density Decreased (Placebo/Cilansetron 2 mg): 1 (<1%) n (%); TEAE: Bone Disorder NOS (Placebo/Cilansetron 2 mg): 0 n (%); TEAE: Bone Disorders NEC (Placebo/Cilansetron 2 mg): 2 (<1%) n (%); TEAE: Bone Injury (Placebo/Cilansetron 2 mg): 0 n (%); TEAE: Bone Spur (Placebo/Cilansetron 2 mg): 1 (<1%) n (%); TEAE: Bronchitis Acute NOS (Placebo/Cilansetron 2 mg): 1 (<1%) n (%); TEAE: Bronchitis NOS (Placebo/Cilansetron 2 mg): 5 (2%) n (%); TEAE: Bronchopneumonia NOS (Placebo/Cilansetron 2 mg): 1 (<1%) n (%); TEAE: Bunion (Placebo/Cilansetron 2 mg): 0 n (%); TEAE: Bursal Disorders (Placebo/Cilansetron 2 mg): 3 (1%) n (%); TEAE: Bursitis (Placebo/Cilansetron 2 mg): 2 (<1%) n (%); TEAE: Candida Infections (Placebo/Cilansetron 2 mg): 2 (<1%) n (%); TEAE: Candidal Infection NOS (Placebo/Cilansetron 2 mg): 1 (<1%) n (%); TEAE: Carbohydrate Tolerance Analyses (Incl Diabetes) (Placebo/Cilansetron 2 mg): 0 n (%); TEAE: Cardiac Auscultatory Investigations (Placebo/Cilansetron 2 mg): 0 n (%); TEAE: Cardiac Murmur NOS (Placebo/Cilansetron 2 mg): 0 n (%); TEAE: Carotid Bruit (Placebo/Cilansetron 2 mg): 1 (<1%) n (%); TEAE: Carpal Tunnel Syndrome (Placebo/Cilansetron 2 mg): 1 (<1%) n (%); TEAE: Cartilage Disorder NOS (Placebo/Cilansetron 2 mg): 0 n (%); TEAE: Cartilage Disorders (Placebo/Cilansetron 2 mg): 0 n (%); TEAE: Cellulitis (Placebo/Cilansetron 2 mg): 1 (<1%) n (%); TEAE: Cervical Spasm (Placebo/Cilansetron 2 mg): 0 n (%); TEAE: Change in Bowel Habit NOS (Placebo/Cilansetron 2 mg): 1 (<1%) n (%); TEAE: Chapped Lips (Placebo/Cilansetron 2 mg): 1 (<1%) n (%); TEAE: Chest Wall Pain (Placebo/Cilansetron 2 mg): 2 (<1%) n (%); TEAE: Cholesterol Analyses (Placebo/Cilansetron 2 mg): 8 (3%) n (%); TEAE: Colitis (Excl Infective) (Placebo/Cilansetron 2 mg): 1 (<1%) n (%); TEAE: Colitis Ischaemic (Placebo/Cilansetron 2 mg): 1 (<1%) n (%); TEAE: Colonic Polyp (Placebo/Cilansetron 2 mg): 0 n (%); TEAE: Connective Tissue Disorders (Excl Le) (Placebo/Cilansetron 2 mg): 2 (<1%) n (%); TEAE: Constipation (Placebo/Cilansetron 2 mg): 62 (22%) n (%); TEAE: Cystitis NOS (Placebo/Cilansetron 2 mg): 0 n (%); TEAE: Dental Disorders NEC (Placebo/Cilansetron 2 mg): 0 n (%); TEAE: Dental Infections - Pathogen Class Unspecified (Placebo/Cilansetron 2 mg): 2 (<1%) n (%); TEAE: Dental Pain and Sensation Disorders (Placebo/Cilansetron 2 mg): 1 (<1%) n (%); TEAE: Diaphragmatic Hernias (Placebo/Cilansetron 2 mg): 0 n (%); TEAE: Diarrhoea (Excl Infective) (Placebo/Cilansetron 2 mg): 15 (5%) n (%); TEAE: Diarrhoea Aggravated (Placebo/Cilansetron 2 mg): 2 (<1%) n (%); TEAE: Diarrhoea Haemorrhagic (Placebo/Cilansetron 2 mg): 2 (<1%) n (%); TEAE: Diarrhoea NOS (Placebo/Cilansetron 2 mg): 9 (3%) n (%); TEAE: Disturbances in Consciousness NEC (Placebo/Cilansetron 2 mg): 1 (<1%) n (%); TEAE: Diverticulitis NOS (Placebo/Cilansetron 2 mg): 1 (<1%) n (%); TEAE: Diverticulum Inflammations (Placebo/Cilansetron 2 mg): 1 (<1%) n (%); TEAE: Dizziness (Placebo/Cilansetron 2 mg): 2 (<1%) n (%); TEAE: Dry Mouth (Placebo/Cilansetron 2 mg): 1 (<1%) n (%); TEAE: Dysarthria (Placebo/Cilansetron 2 mg): 1 (<1%) n (%); TEAE: Dyskinesias and Movement Disorders NEC (Placebo/Cilansetron 2 mg): 1 (<1%) n (%); TEAE: Dyspepsia (Placebo/Cilansetron 2 mg): 7 (3%) n (%); TEAE: Dyspepsia Aggravated (Placebo/Cilansetron 2 mg): 0 n (%); TEAE: Dyspeptic Signs and Symptoms (Placebo/Cilansetron 2 mg): 7 (3%) n (%); TEAE: ECG Investigations (Placebo/Cilansetron 2 mg): 1 (<1%) n (%); TEAE: Ear Infection NOS (Placebo/Cilansetron 2 mg): 2 (<1%) n (%); TEAE: Ear Infections (Placebo/Cilansetron 2 mg): 3 (1%) n (%); TEAE: Electrocardiogram Qrs Complex Abnormal (Placebo/Cilansetron 2 mg): 0 n (%); TEAE: Electrocardiogram T Wave Inversion (Placebo/Cilansetron 2 mg): 1 (<1%) n (%); TEAE: Enteritis (Placebo/Cilansetron 2 mg): 1 (<1%) n (%); TEAE: Epigastric Discomfort (Placebo/Cilansetron 2 mg): 1 (<1%) n (%)
